The supplement of paper PMC10307832

Legend:
Test in all cases: relative viability (nuclei count vs DMSO), 5 days (fraction); higher = more cells survive
[1] = compound: O=c1[nH]cc(F)c(=O)[nH]1 [5-Fluorouracil] + Nc1nc2[nH]cc(CCc3ccc(C(=O)N[C@@H](CCC(=O)O)C(=O)O)cc3)c2c(=O)[nH]1 [Pemetrexed] (partner 0.2 µM)
In short: (§1)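 Relative viability was taken as the ratio of nuclei in treated wells to nuclei in vehicle wells. Lung cancer cell lines in 1536-well plates received compounds by pin tool one day after seeding, either one drug alone or a fixed anchor-drug dose plus five library-drug doses (not always all listed) in √10 steps. Nuclei were counted on 4× images after 5 days of treatment, and values are medians of duplicate plates.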

5-Fluorouracil + AZD7762 = compound: O=c1[nH]cc(F)c(=O)[nH]1 [5-Fluorouracil] + NC(=O)Nc1cc(-c2cccc(F)c2)sc1C(=O)N[C@H]1CCCNC1 [AZD7762] (partner 0.2 µM)
In short: as §1

5-Fluorouracil + OSI-027 = compound: O=c1[nH]cc(F)c(=O)[nH]1 [5-Fluorouracil] + COc1cccc2cc(-c3nc([C@H]4CC[C@H](C(=O)O)CC4)n4ncnc(N)c34)[nH]c12 [OSI-027] (partner 0.5 µM)
In short: as §1

[2] = compound: CN[C@@H]1C[C@H]2O[C@@](C)([C@@H]1OC)n1c3ccccc3c3c4c(c5c6ccccc6n2c5c31)C(=O)NC4 [Staurosporine] + C[C@]1(O)C[C@@H](c2nc(-c3ccc4ccc(-c5ccccc5)nc4c3)c3c(N)nccn32)C1 [Linsitinib] (partner 1 µM)
In short: as §1

| Cell Line | relative viability ([1]; first compound 0.02 µM) | relative viability ([1]; first compound 0.2 µM) | relative viability ([1]; first compound 0.6325 µM) | relative viability ([1]; first compound 2 µM) | relative viability (5-Fluorouracil + AZD7762; first compound 0.02 µM) | relative viability (5-Fluorouracil + AZD7762; first compound 0.2 µM) | relative viability (5-Fluorouracil + AZD7762; first compound 0.6325 µM) | relative viability (5-Fluorouracil + AZD7762; first compound 2 µM) | relative viability (5-Fluorouracil + OSI-027; first compound 0.02 µM) | relative viability (5-Fluorouracil + OSI-027; first compound 0.2 µM) | relative viability (5-Fluorouracil + OSI-027; first compound 0.6325 µM) | relative viability (5-Fluorouracil + OSI-027; first compound 2 µM) | relative viability ([2]; first compound 0.005 µM) | relative viability ([2]; first compound 0.01581 µM) | relative viability ([2]; first compound 0.05 µM) | relative viability ([2]; first compound 0.1581 µM) | relative viability ([2]; first compound 0.5 µM) |
| --- | --- | --- | --- | --- | --- | --- | --- | --- | --- | --- | --- | --- | --- | --- | --- | --- | --- |
| LC-2-ad | 0.258 | 0.286 | 0.282 | 0.272 | 0.922 | 0.536 | 0.331 | 0.253 | 0.91 | 0.582 | 0.404 | 0.322 | 0.817 | 0.434 | 0.192 | 0.0865 | 0.0668 |
| 201T | 0.322 | 0.267 | 0.274 | 0.248 | 0.51 | 0.264 | 0.197 | 0.217 | 0.964 | 0.274 | 0.161 | 0.128 | 1.02 | 1 | 0.814 | 0.688 | 0.575 |
| NCI-H1395 | 0.743 | 0.994 | 0.902 | 0.893 | 0.395 | 0.405 | 0.459 | 0.385 | 0.505 | 0.738 | 0.579 | 0.684 | 0.947 | 0.427 | 0.381 | 0.377 | 0.289 |
| NCI-H23 | 0.944 | 0.63 | 0.408 | 0.337 | 0.142 | 0.208 | 0.163 | 0.172 | 0.618 | 0.56 | 0.388 | 0.252 | 0.419 | 0.234 | 0.213 | 0.219 | 0.155 |
| LU99A | 0.185 | 0.177 | 0.154 | 0.171 | 0.364 | 0.458 | 0.368 | 0.177 | 0.262 | 0.272 | 0.311 | 0.223 | 0.441 | 0.212 | 0.201 | 0.182 | 0.14 |
| NCI-H1437 | 0.269 | 0.271 | 0.208 | 0.262 | 0.34 | 0.199 | 0.17 | 0.116 | 0.495 | 0.23 | 0.205 | 0.188 | – | 0.43 | 0.255 | 0.128 | 0.0812 |
| EKVX | 0.305 | 0.283 | – | – | 0.322 | 0.157 | 0.145 | 0.157 | – | – | 0.148 | 0.134 | 0.624 | 0.357 | 0.22 | 0.183 | 0.109 |
| NCI-H647 | 0.187 | 0.182 | 0.176 | 0.164 | 0.448 | 0.588 | 0.402 | 0.333 | 0.616 | 0.724 | 0.464 | 0.378 | 0.616 | 0.361 | 0.22 | 0.112 | 0.0579 |
| NCI-H1734 | 0.419 | 0.412 | 0.401 | 0.45 | 0.539 | 0.613 | 0.54 | 0.314 | 0.58 | 0.655 | 0.513 | 0.398 | 0.849 | 0.473 | 0.294 | 0.228 | 0.164 |
| LCLC-97TM1 | 0.146 | 0.218 | 0.165 | 0.176 | 0.16 | 0.276 | 0.22 | 0.132 | 0.392 | 0.531 | 0.557 | 0.379 | 0.237 | 0.163 | 0.163 | 0.207 | 0.144 |
| NCI-H1793 | 0.944 | 0.942 | 0.695 | 0.503 | 0.344 | 0.488 | 0.409 | 0.332 | 0.283 | 0.369 | 0.303 | 0.207 | 0.879 | 0.558 | 0.582 | 0.465 | 0.209 |
| NCI-H322M | 0.602 | 0.598 | 0.549 | 0.512 | 0.57 | 0.627 | 0.608 | 0.53 | 0.534 | 0.563 | 0.486 | 0.449 | 1.12 | 0.648 | 0.56 | 0.427 | 0.458 |
| RERF-LC-KJ | 0.483 | 0.507 | 0.531 | 0.495 | 0.973 | – | 0.948 | 0.893 | 0.609 | 0.553 | 0.543 | 0.471 | 0.895 | 0.804 | 0.431 | 0.213 | 0.166 |
| EPLC-272H | 0.242 | 0.23 | 0.269 | 0.274 | 0.243 | 0.122 | 0.109 | 0.102 | 0.272 | 0.257 | 0.263 | 0.212 | 1.17 | 0.732 | 0.352 | 0.25 | 0.234 |
| A-427 | 0.852 | 0.984 | 0.866 | 0.55 | 0.676 | 0.805 | 0.308 | 0.253 | 0.461 | 0.557 | 0.359 | 0.259 | 1.05 | – | 0.43 | 0.313 | 0.189 |
